The record followed here is patent US20250145594A1, “MODULATORS OF THE INTEGRATED STRESS PATHWAY” (Calico Life Sciences LLC, priority 2020, published 2025).

In general, EC50 refers to the concentration needed to bring the measured effect to its halfway point.

A value given as a limit tells only on which side of the number the result lay.

This test concerns ATF4 luciferase reporter in HEK293T cells. Kind of test: ATF4-Luc assay (in vitro model of VWMD). Format: cell-based, human. The conditions noted are these: Homo sapiens, HEK-293T, 7 h, HEK293T cells carrying the ATF4 luciferase reporter, 1 μg/mL tunicamycin, One Glo luminescence. In a few lines:
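Tunicamycin (1 μg/mL) stress with co-added compound for 7 hours in HEK293T cells stably carrying an ATF4 5′-UTR–luciferase reporter. EC50 values come from the luminescent signal (One Glo).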
On to `O=C(N[C@H]1CC[C@H](n2cc(-c3ccc(OC(F)(F)F)cn3)cn2)CC1)[C@H]1C[C@@H](O)c2cc(Cl)ccc2O1` [Compound 481, (2R,4R)-6-chloro-4-hydroxy-N-[(1r,4R)-4-{4-[5-(trifluoromethoxy)pyridin-2-yl]-1H-pyrazol-1-yl}cyclohexyl]-3,4-dihydro-2H-1-benzopyran-2-carboxamide], for which the concentration for a half-maximal effect (EC50) was less than 10 nM.

With `O=C(NC12CC(n3cc(-c4ccc(C(F)(F)F)cn4)cn3)(C1)C2)[C@H]1C[C@@H](O)c2cc(Cl)c(F)cc2O1` [Compound 482, (2R,4R)-6-chloro-7-fluoro-4-hydroxy-N-(3-{4-[5-(trifluoromethyl)pyridin-2-yl]-1H-pyrazol-1-yl}bicyclo[1.1.1]pentan-1-yl)-3,4-dihydro-2H-1-benzopyran-2-carboxamide], the EC50 is less than 10 nM.

For `O=C(NC12CC(n3cc(OCCOC(F)(F)F)cn3)(C1)C2)[C@H]1C[C@@H](O)c2cc(C(F)(F)F)c(F)cc2O1` [Compound 483, (2R,4R)-7-fluoro-4-hydroxy-N-(3-{4-[2-(trifluoromethoxy)ethoxy]-1H-pyrazol-1-yl}bicyclo[1.1.1]pentan-1-yl)-6-(trifluoromethyl)-3,4-dihydro-2H-1-benzopyran-2-carboxamide], the 50% effective concentration (EC50) is less than 10 nM.

For the compound `O=C(NC12CC(n3cc(-c4ccc(C(F)(F)F)cn4)cn3)(C1)C2)[C@H]1C[C@@H](O)c2cc(C(F)(F)F)c(F)cc2O1` [Compound 484, (2R,4R)-7-fluoro-4-hydroxy-6-(trifluoromethyl)-N-(3-{4-[5-(trifluoromethyl)pyridin-2-yl]-1H-pyrazol-1-yl}bicyclo[1.1.1]pentan-1-yl)-3,4-dihydro-2H-1-benzopyran-2-carboxamide], the EC50 is less than 10 nM.

`O=C(NC12CC(n3cc(-c4ccc(OC(F)(F)F)cn4)cn3)(C1)C2)[C@H]1C[C@@H](O)c2cc(C(F)(F)F)c(F)cc2O1` [Compound 485, (2R,4R)-7-fluoro-4-hydroxy-N-(3-{4-[5-(trifluoromethoxy)pyridin-2-yl]-1H-pyrazol-1-yl}bicyclo[1.1.1]pentan-1-yl)-6-(trifluoromethyl)-3,4-dihydro-2H-1-benzopyran-2-carboxamide]: the concentration for a half-maximal effect (EC50) was less than 10 nM.

As for `O=C(N[C@H]1CC[C@H](n2cc(OCCOC(F)(F)F)cn2)CC1)[C@H]1C[C@H](O)c2cc(C(F)(F)F)c(F)cc2O1` [Compound 486, (2R,4R)-7-fluoro-4-hydroxy-N-[(1r,4R)-4-{4-[2-(trifluoromethoxy)ethoxy]-1H-pyrazol-1-yl}cyclohexyl]-6-(trifluoromethyl)-3,4-dihydro-2H-1-benzopyran-2-carboxamide], the EC50 was less than 10 nM.

With `O=C(NC12CC(n3cc(OCCOC(F)(F)F)nn3)(C1)C2)[C@H]1C[C@@H](O)c2cc(Cl)ccc2O1` [Compound 487, (2R,4R)-6-chloro-4-hydroxy-N-(3-{4-[2-(trifluoromethoxy)ethoxy]-1H-1,2,3-triazol-1-yl}bicyclo[1.1.1]pentan-1-yl)-3,4-dihydro-2H-1-benzopyran-2-carboxamide], the EC50 was less than 10 nM.

Consider `O=C(CO[C@H]1C[C@@H](OC(F)(F)F)C1)NC12CCC(NC(=O)[C@H]3C[C@@H](O)c4cc(Cl)c(F)cc4O3)(CC1)C[C@@H]2O` [Compound 488, (2R,4R)-6-chloro-7-fluoro-4-hydroxy-N-[(3S)-3-hydroxy-4-(2-{[(1s,3R)-3-(trifluoromethoxy)cyclobutyl]oxy}acetamido)bicyclo[2.2.2]octan-1-yl]-3,4-dihydro-2H-1-benzopyran-2-carboxamide], for which the EC50 is less than 10 nM.

With `O=C(CO[C@H]1C[C@@H](OC(F)(F)F)C1)NC12CCC(NC(=O)[C@H]3C[C@@H](O)c4cc(C(F)(F)F)ccc4O3)(CC1)[C@@H](O)C2` [Compound 489, (2R,4R)-4-hydroxy-N-[(2S)-2-hydroxy-4-(2-{[(1s,3R)-3-(trifluoromethoxy)cyclobutyl]oxy}acetamido)bicyclo[2.2.2]octan-1-yl]-6-(trifluoromethyl)-3,4-dihydro-2H-1-benzopyran-2-carboxamide], the EC50 was less than 10 nM.

Consider `O=C(CO[C@H]1C[C@@H](OC(F)(F)F)C1)NC12CCC(NC(=O)[C@H]3C[C@@H](O)c4cc(Cl)c(F)cc4O3)(CC1)[C@@H](O)C2` [Compound 490, (2R,4R)-6-chloro-7-fluoro-4-hydroxy-N-[(2S)-2-hydroxy-4-(2-{[(1s,3R)-3-(trifluoromethoxy)cyclobutyl]oxy}acetamido)bicyclo[2.2.2]octan-1-yl]-3,4-dihydro-2H-1-benzopyran-2-carboxamide], for which the EC50 is less than 10 nM.

As for `O=C(CO[C@H]1C[C@@H](OC(F)(F)F)C1)NC12CC(NC(=O)[C@@H]3C[C@@H](O)c4cc(Cl)c(F)cc4O3)(C1)C2` [Compound 491, (2S,4R)-6-chloro-7-fluoro-4-hydroxy-N-[3-(2-{[(1s,3R)-3-(trifluoromethoxy)cyclobutyl]oxy}acetamido)bicyclo[1.1.1]pentan-1-yl]-3,4-dihydro-2H-1-benzopyran-2-carboxamide], the EC50 is less than 10 nM.

`O=C(CO[C@H]1C[C@@H](OC(F)(F)F)C1)NC12CC(NC(=O)[C@@H]3C[C@@H](O)c4cc(Cl)c(Cl)cc4O3)(C1)C2` [Compound 492, (2S,4R)-6,7-dichloro-4-hydroxy-N-[3-(2-{[(1s,3R)-3-(trifluoromethoxy)cyclobutyl]oxy}acetamido)bicyclo[1.1.1]pentan-1-yl]-3,4-dihydro-2H-1-benzopyran-2-carboxamide]: the EC50 was less than 10 nM.

Consider `O=C(CO[C@H]1C[C@@H](OC(F)(F)F)C1)NC12CC(NC(=O)[C@H]3C[C@@H](O)c4cc(C(F)(F)F)ccc4O3)(C1)C2` [Compound 493, (2R,4R)-4-hydroxy-N-[3-(2-{[(1s,3S)-3-(trifluoromethoxy)cyclobutyl]oxy}acetamido)bicyclo[1.1.1]pentan-1-yl]-6-(trifluoromethyl)-3,4-dihydro-2H-1-benzopyran-2-carboxamide], for which the 50% effective concentration (EC50) was less than 10 nM.

Turning to `O=C(CO[C@H]1C[C@@H](OC(F)(F)F)C1)NC12CC(NC(=O)[C@H]3C[C@@H](O)c4cc(Cl)c(Cl)cc4O3)(C1)C2` [Compound 494, (2R,4R)-6,7-dichloro-4-hydroxy-N-[3-(2-{[(1s,3S)-3-(trifluoromethoxy)cyclobutyl]oxy}acetamido)bicyclo[1.1.1]pentan-1-yl]-3,4-dihydro-2H-1-benzopyran-2-carboxamide], the concentration for a half-maximal effect (EC50) was less than 10 nM.

`O=C(CO[C@H]1C[C@@H](OC(F)(F)F)C1)NC12CC(NC(=O)[C@H]3C[C@H](O)c4cc(Cl)c(Cl)cc4O3)(C1)C2` [Compound 495, (2R,4S)-6,7-dichloro-4-hydroxy-N-[3-(2-{[(1s,3S)-3-(trifluoromethoxy)cyclobutyl]oxy}acetamido)bicyclo[1.1.1]pentan-1-yl]-3,4-dihydro-2H-1-benzopyran-2-carboxamide]: the EC50 was less than 10 nM.

For `O=C(CO[C@H]1C[C@@H](OC(F)(F)F)C1)NC12CC(NC(=O)[C@H]3C[C@H](O)c4cc(Cl)c(F)cc4O3)(C1)C2` [Compound 496, (2R,4S)-6-chloro-7-fluoro-4-hydroxy-N-[3-(2-{[(1s,3S)-3-(trifluoromethoxy)cyclobutyl]oxy}acetamido)bicyclo[1.1.1]pentan-1-yl]-3,4-dihydro-2H-1-benzopyran-2-carboxamide], the EC50 is less than 10 nM.

Turning to `COc1cc2cn(C34CC(NC(=O)[C@H]5C[C@@H](O)c6cc(Cl)ccc6O5)(C3)C4)nc2cn1` [Compound 497, (2R,4R)-6-chloro-4-hydroxy-N-[3-(5-methoxy-2H-pyrazolo[3,4-c]pyridin-2-yl)bicyclo[1.1.1]pentan-1-yl]-3,4-dihydro-2H-1-benzopyran-2-carboxamide], the EC50 is 10 to 50 nM.

With `COc1cc2cn(C34CC(NC(=O)[C@H]5C[C@@H](O)c6cc(Cl)c(F)cc6O5)(C3)C4)nc2cn1` [Compound 498, (2R,4R)-6-chloro-7-fluoro-4-hydroxy-N-[3-(5-methoxy-2H-pyrazolo[3,4-c]pyridin-2-yl)bicyclo[1.1.1]pentan-1-yl]-3,4-dihydro-2H-1-benzopyran-2-carboxamide], the EC50 fell in the range of 10 to 50 nM.

Regarding `COc1cc2cn(C34CC(NC(=O)[C@H]5C[C@@H](O)c6cc(C(F)(F)F)ccc6O5)(C3)C4)nc2cn1` [Compound 499, (2R,4R)-4-hydroxy-N-[3-(5-methoxy-2H-pyrazolo[3,4-c]pyridin-2-yl)bicyclo[1.1.1]pentan-1-yl]-6-(trifluoromethyl)-3,4-dihydro-2H-1-benzopyran-2-carboxamide], the EC50 lay in the range of 10 to 50 nM.

As for `COc1ccc2cn(C34CC(NC(=O)[C@H]5C[C@@H](O)c6cc(Cl)ccc6O5)(C3)C4)nc2c1` [Compound 500, (2R,4R)-6-chloro-4-hydroxy-N-[3-(6-methoxy-2H-indazol-2-yl)bicyclo[1.1.1]pentan-1-yl]-3,4-dihydro-2H-1-benzopyran-2-carboxamide], the EC50 was 10 to 50 nM.

As to `COc1ccc2nn(C34CC(NC(=O)[C@H]5C[C@@H](O)c6cc(Cl)ccc6O5)(C3)C4)cc2c1` [Compound 501, (2R,4R)-6-chloro-4-hydroxy-N-[3-(5-methoxy-2H-indazol-2-yl)bicyclo[1.1.1]pentan-1-yl]-3,4-dihydro-2H-1-benzopyran-2-carboxamide], the EC50 fell in the range of 10 to 50 nM.

For the compound `O=C(NC12CC(n3cc4cc(OC(F)F)ccc4n3)(C1)C2)[C@H]1C[C@@H](O)c2cc(Cl)ccc2O1` [Compound 502, (2R,4R)-6-chloro-N-{3-[5-(difluoromethoxy)-2H-indazol-2-yl]bicyclo[1.1.1]pentan-1-yl}-4-hydroxy-3,4-dihydro-2H-1-benzopyran-2-carboxamide], the EC50 fell in the range of 50 to 250 nM.

For the compound `COc1cc2cn(C34CC(NC(=O)[C@H]5C[C@@H](O)c6cc(Cl)c(Cl)cc6O5)(C3)C4)nc2cn1` [Compound 503, (2R,4R)-6,7-dichloro-4-hydroxy-N-[3-(5-methoxy-2H-pyrazolo[3,4-c]pyridin-2-yl)bicyclo[1.1.1]pentan-1-yl]-3,4-dihydro-2H-1-benzopyran-2-carboxamide], the EC50 was less than 10 nM.
